Tests used:
beggarticks = experiment: Test E preemergence herbicide test; assay type: in vivo, Bidens pilosa; parameters: key: 0 = no effect, 100 = complete control
Excerpt: Seeds of plant species selected from corn (Zea mays), soybean (Glycine max), velvetleaf (Abutilon theophrasti), lambsquarters (Chenopodium album), wild poinsettia (Euphorbia heterophylla), pigweed, palmer (palmer pigweed, Amaranthus palmeri), waterhemp (common waterhemp, Amaranthus rudis), surinam grass (Brachiaria decumbens), crabgrass, large (large crabgrass, Digitaria sanguinalis), crabgrass, Brazil (Brazilian crabgrass, Digitaria horizontalis), panicum, fall (fall panicum, Panicum dichotomiflorum), foxtail, giant (giant foxtail, Setaria faberii), foxtail, green (green foxtail, Setaria viridis), goosegrass (Eleusine indica), johnsongrass (Sorghum halepense), ragweed (common ragweed, Ambrosia elatior), barnyardgrass (Echinochloa crus-galli), sandbur (southern sandbur, Cenchrus echinatus), arrowleaf […] rhombifolia), ryegrass, Italian (Italian ryegrass, Lolium multiflorum), dayflower, VA (Virginia dayflower, Commelina virginica), field bindweed (Convolvulus arvensis), morningglory (Ipomoea coccinea), nightshade (eastern black nightshade, Solanum ptycanthum), kochia (Kochia scoparia), nutsedge, yellow (yellow nutsedge, Cyperus esculentus), cocklebur (common cocklebur, Xanthium strumarium), smartweed (ladysthumb smartweed, Polygonum Persicaria) and beggarticks (hairy beggarticks, Bidens pilosa), were planted into a silt loam soil and treated preemergence with test chemicals formulated in a non-phytotoxic solvent mixture which included a surfactant. Treated plants and controls were maintained in a greenhouse for 21 days, after which time all species were compared to controls and visually evaluated. Plant response ratings, summarized in Table E, are based on a scale of 0 to 100 where 0 is no effect and 100 is complete control. A dash (-) response means no test result.

wheat, winter = experiment: Test D pre-/postemergence herbicide test; assay type: in vivo, Triticum aestivum; conditions: for Plant response rating, Wheat, Winter: Preemergence, scale 0 to 100 (0 no effect, 100 complete control); for Plant response rating: Postemergence, Wheat, Winter, scale 0 to 100
Excerpt: (§1) Seeds of plant species selected from bluegrass (annual bluegrass, Poa annua), blackgrass (Alopecurus myosuroides), canarygrass (littleseed canarygrass, Phalaris minor), chickweed (common chickweed, Stellaria media), galium (catchweed bedstraw, Galium aparine), bromegrass, downy (downy bromegrass, Bromus tectorum), field poppy (Papaver rhoeas), field violet (Viola arvensis), foxtail, green (green foxtail, Setaria viridis), deadnettle (henbit deadnettle, Lamium amplexicaule), ryegrass, Italian (Italian ryegrass, Lolium multiflorum), kochia (Kochia scoparia), lambsquarters (Chenopodium album), oilseed rape (Brassica napus), pigweed (Amaranthus retroflexus), chamomile (scentless chamomile, Matricaria inodora), Russian thistle (Salsola kali), speedwell (bird's-eye speedwell, Veronica persica), barley, spring (spring barley, Hordeum vulgare), wheat, spring (spring wheat, Triticum aestivum), buckwheat, wild (wild buckwheat, Polygonum convolvulus), mustard, wild (wild mustard, Sinapis arvensis), oat, wild (wild oat, Avena fatua), radish, wild (wild radish, Raphanus raphanistrum), […]), barley, winter (winter barley, Hordeum vulgare), and wheat, winter (winter wheat, Triticum aestivum) were planted into a silt loam soil and treated preemergence with test chemicals formulated in a non-phytotoxic solvent mixture which included a surfactant. At the same time, these species were planted in pots containing Redi-Earth® planting medium (Scotts Company, 14111 Scottslawn Road, Marysville, Ohio 43041) comprising spaghnum peat moss, vermiculite, wetting agent and starter nutrients and treated with postemergence applications of the test chemicals formulated in the same manner. Plants ranged in height from 2 to 18 cm (1- to 4-leaf stage). Treated plants and controls were maintained in a controlled growth environment for 7 to 21 days after which time all species were compared to controls and visually evaluated. Plant response ratings, summarized in Table D, are based on a scale of 0 to 100 where 0 is no effect and 100 is complete control. A dash (-) response means no test result.

bromegrass, downy = experiment: Test D pre-/postemergence herbicide test; assay type: in vivo, Bromus tectorum; conditions: for Plant response rating, Bromegrass, Downy: scale 0 to 100 (0 no effect, 100 complete control); for Plant response rating: Bromegrass, Downy, scale 0 to 100
Excerpt: as §1

foxtail, green = experiment: Test C pre-/postemergence herbicide test; assay type: in vivo, Setaria viridis
Excerpt: Seeds of plant species selected from blackgrass (Alopecurus myosuroides), ryegrass, Italian (Italian ryegrass, Lolium multiflorum), wheat (winter wheat, Triticum aestivum), galium (catchweed bedstraw, Galium aparine), corn (Zea mays), crabgrass, large (large crabgrass, Digitaria sanguinalis), foxtail, giant (giant foxtail, Setaria faberii), johnsongrass (Sorghum halepense), lambsquarters (Chenopodium album), morningglory (Ipomoea coccinea), nutsedge, yellow (yellow nutsedge, Cyperus esculentus), pigweed (Amaranthus retroflexus), ragweed (common ragweed, Ambrosia elatior), soybean (Glycine max), barnyardgrass (Echinochloa crus-galli), oilseed rape (Brassica napus), waterhemp (common waterhemp, Amaranthus rudis), kochia (Kochia scoparia), oat, wild (wild oat, Avena fatua), surinam grass (Brachiaria decumbens), foxtail, green (green foxtail, Setaria viridis), goosegrass (Eleusine indica), bromegrass, downy (downy bromegrass, Bromus tectorum), nightshade (eastern black nightshade, Solanum ptycanthum), cocklebur (common cocklebur, Xanthium strumarium), cupgrass, woolly (woolly cupgrass, Eriochloa villosa), bermudagrass (Cynodon dactylon), sunflower, (common oilseed sunflower, Helianthus annuus), Russian thistle (Salsola kali) and velvetleaf (Abutilon theophrasti) were planted into a blend of loam soil and sand and treated preemergence with test chemicals formulated in a non-phytotoxic solvent mixture which included a surfactant. At the same time, plants selected from these crop and weed species and also barley (winter barley, Hordeum vulgare), […]), chickweed (common chickweed, Stellaria media), deadnettle (henbit deadnettle, Lamium amplexicaule), and canarygrass (littleseed canarygrass, Phalaris minor) were planted in pots containing Redi-Earth® planting medium (Scotts Company, 14111 Scottslawn Road, Marysville, Ohio 43041) comprising spaghnum peat moss, vermiculite, wetting agent and starter nutrients and treated with postemergence applications of test chemicals formulated in the same manner. Plants ranged in height from 2 to 18 cm (1- to 4-leaf stage) for postemergence treatments. Treated plants and controls were maintained in a greenhouse for 13 to 15 days, after which time all species were compared to controls and visually evaluated. Plant response ratings, summarized in Table C, are based on a scale of 0 to 100 where 0 is no effect and 100 is complete control. A dash (-) response means no test result.

Russian thistle = experiment: Test D pre-/postemergence herbicide test; assay type: in vivo, Salsola kali; conditions: for Plant response rating: Postemergence, Russian Thistle, scale 0 to 100; for Plant response rating, Russian Thistle: Preemergence, scale 0 to 100 (0 no effect, 100 complete control)
Method in brief: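 Postemergence sprays were made on plants at the 1- to 4-leaf stage in peat-based medium, and preemergence sprays on seeds planted in silt loam. The formulation was a non-phytotoxic solvent mixture containing surfactant. Plants were compared with controls after 7 to 21 days and rated visually on a 0–100 scale.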

[1] = Postemergence, 31 g ai/ha, scale 0 (no effect) to 100 (complete control)
[2] = Postemergence, 62 g ai/ha, scale 0 to 100 (0 no effect, 100 complete control)
[3] = Postemergence, 125 g ai/ha, scale 0 to 100 (0 no effect, 100 complete control)
[4] = Postemergence, 250 g ai/ha, scale 0 to 100 (0 no effect, 100 complete control)

O=C1NCC(c2ccc(OC(F)F)cc2)C1C(=O)Nc1cccc(F)c1F (racemic) [Compound 350]
Plant response rating, Beggarticks (beggarticks; 31 g ai/ha): 0 | Plant response rating, Beggarticks (beggarticks; 62 g ai/ha): 0 | Plant response rating, Beggarticks (beggarticks; 125 g ai/ha): 20 | Plant response rating, Beggarticks (beggarticks; 250 g ai/ha): 20

O=C1NC[C@H](c2cccc(C(F)(F)F)c2)[C@H]1C(=O)Nc1cccc(F)c1F [Compound 206]
Plant response rating, Beggarticks (beggarticks; 31 g ai/ha): 0 | Plant response rating, Beggarticks (beggarticks; 62 g ai/ha): 0 | Plant response rating, Beggarticks (beggarticks; 125 g ai/ha): 0 | Plant response rating, Beggarticks (beggarticks; 250 g ai/ha): 0 | Plant response rating, Wheat, Winter (wheat, winter; 62 g ai/ha): 0 | Plant response rating, Wheat, Winter (wheat, winter; 125 g ai/ha): 25 | Plant response rating, Wheat, Winter (wheat, winter; 31 g ai/ha): 0 | Plant response rating, Wheat, Winter (wheat, winter; 250 g ai/ha): 30 | Plant response rating, Bromegrass, Downy (bromegrass, downy; Preemergence, 62 g ai/ha): 25 | Plant response rating, Bromegrass, Downy (bromegrass, downy; Preemergence, 125 g ai/ha): 55 | Plant response rating, Bromegrass, Downy (bromegrass, downy; Preemergence, 31 g ai/ha): 10 | Plant response rating (bromegrass, downy; Preemergence, 250 g ai/ha): 70

O=C1NC[C@H](c2cccc(C(F)(F)F)c2)[C@H]1C(=O)Nc1ccccc1F [Compound 204, (3R,4S)—N-(2-fluorophenyl)-2-oxo-4-[3-(trifluoromethyl)phenyl]-3-pyrrolidinecarboxamide]
Plant response rating, Beggarticks (beggarticks; 31 g ai/ha): 0 | Plant response rating, Beggarticks (beggarticks; 62 g ai/ha): 0 | Plant response rating, Beggarticks (beggarticks; 125 g ai/ha): 0 | Plant response rating, Beggarticks (beggarticks; 250 g ai/ha): 0 | Plant response rating, Wheat, Winter (wheat, winter; 62 g ai/ha): 15 | Plant response rating, Wheat, Winter (wheat, winter; 125 g ai/ha): 15 | Plant response rating, Wheat, Winter (wheat, winter; 31 g ai/ha): 5 | Plant response rating, Wheat, Winter (wheat, winter; 250 g ai/ha): 20 | Plant response rating, Bromegrass, Downy (bromegrass, downy; Preemergence, 62 g ai/ha): 20 | Plant response rating, Bromegrass, Downy (bromegrass, downy; Preemergence, 125 g ai/ha): 35 | Plant response rating, Bromegrass, Downy (bromegrass, downy; Preemergence, 31 g ai/ha): 0 | Plant response rating (bromegrass, downy; Preemergence, 250 g ai/ha): 45

O=C1NCC(c2ccc(Cl)c(F)c2)C1C(=O)Nc1cccc(F)c1F (stereo not shown) [Compound 52]
Plant response rating (wheat, winter; 16 g ai/ha): 0 | Plant response rating (wheat, winter; 31 g ai/ha): 0 | Plant response rating (wheat, winter; 62 g ai/ha): 0 | Plant response rating (wheat, winter; 125 g ai/ha): 0 | Plant response rating (wheat, winter; 250 g ai/ha): 0 | Plant response rating, Wheat, Winter (wheat, winter; 62 g ai/ha): 0 | Plant response rating, Wheat, Winter (wheat, winter; 125 g ai/ha): 0 | Plant response rating, Wheat, Winter (wheat, winter; 16 g ai/ha): 0 | Plant response rating, Wheat, Winter (wheat, winter; 31 g ai/ha): 0 | Plant response rating, Wheat, Winter (wheat, winter; 250 g ai/ha): 10 | Plant response rating (bromegrass, downy; Postemergence, 16 g ai/ha): 0 | Plant response rating (bromegrass, downy; Postemergence, 31 g ai/ha): 0 | Plant response rating (bromegrass, downy; Postemergence, 62 g ai/ha): 0 | Plant response rating (bromegrass, downy; Postemergence, 125 g ai/ha): 0 | Plant response rating (bromegrass, downy; Postemergence, 250 g ai/ha): 0 | Plant response rating, Bromegrass, Downy (bromegrass, downy; Preemergence, 62 g ai/ha): 0 | Plant response rating, Bromegrass, Downy (bromegrass, downy; Preemergence, 16 g ai/ha): 0 | Plant response rating, Bromegrass, Downy (bromegrass, downy; Preemergence, 31 g ai/ha): 0 | Plant response rating (bromegrass, downy; Preemergence, 125 g ai/ha): 0 | Plant response rating (bromegrass, downy; Preemergence, 250 g ai/ha): 0 | Plant response rating, Foxtail, Green (foxtail, green; [1]): 0 | Plant response rating, Foxtail, Green (foxtail, green; [2]): 10 | Plant response rating, Foxtail, Green (foxtail, green; [3]): 30 | Plant response rating, Foxtail, Green (foxtail, green; [4]): 80 | Plant response rating, Foxtail, Green (foxtail, green; Preemergence, 62 g ai/ha, scale 0 to 100): 90 | Plant response rating, Foxtail, Green (foxtail, green; Preemergence, 125 g ai/ha, scale 0 to 100 (0 no effect, 100 complete control)): 90 | Foxtail, Green plant response rating (foxtail, green; Preemergence, 31 g ai/ha, scale 0 to 100 (0 no effect, 100 complete control)): 80 | Plant response rating, Foxtail, Green (foxtail, green; Preemergence, 250 g ai/ha, scale 0 to 100 (0 no effect, 100 complete control)): 90 | Plant response rating (Russian thistle; 16 g ai/ha): 0 | Plant response rating (Russian thistle; 31 g ai/ha): 0 | Plant response rating (Russian thistle; 62 g ai/ha): 0 | Plant response rating (Russian thistle; 125 g ai/ha): 0 | Plant response rating (Russian thistle; 250 g ai/ha): 0 | Plant response rating, Russian Thistle (Russian thistle; 62 g ai/ha): 0 | Plant response rating, Russian Thistle (Russian thistle; 125 g ai/ha): 20 | Plant response rating, Russian Thistle (Russian thistle; 16 g ai/ha): 0 | Plant response rating, Russian Thistle (Russian thistle; 31 g ai/ha): 0 | Plant response rating, Russian Thistle (Russian thistle; 250 g ai/ha): 30

O=C1NCC(c2cc(F)c(F)cc2F)C1C(=O)Nc1cccc(F)c1F (stereo not shown) [Compound 50]
Plant response rating (wheat, winter; 16 g ai/ha): 0 | Plant response rating (wheat, winter; 31 g ai/ha): 0 | Plant response rating (wheat, winter; 62 g ai/ha): 0 | Plant response rating (wheat, winter; 125 g ai/ha): 0 | Plant response rating, Wheat, Winter (wheat, winter; 62 g ai/ha): 0 | Plant response rating, Wheat, Winter (wheat, winter; 125 g ai/ha): 0 | Plant response rating, Wheat, Winter (wheat, winter; 16 g ai/ha): 0 | Plant response rating, Wheat, Winter (wheat, winter; 31 g ai/ha): 0 | Plant response rating (bromegrass, downy; Postemergence, 16 g ai/ha): 0 | Plant response rating (bromegrass, downy; Postemergence, 31 g ai/ha): 0 | Plant response rating (bromegrass, downy; Postemergence, 62 g ai/ha): 0 | Plant response rating (bromegrass, downy; Postemergence, 125 g ai/ha): 0 | Plant response rating, Bromegrass, Downy (bromegrass, downy; Preemergence, 62 g ai/ha): 0 | Plant response rating, Bromegrass, Downy (bromegrass, downy; Preemergence, 16 g ai/ha): 0 | Plant response rating, Bromegrass, Downy (bromegrass, downy; Preemergence, 31 g ai/ha): 0 | Plant response rating (bromegrass, downy; Preemergence, 125 g ai/ha): 0 | Plant response rating, Foxtail, Green (foxtail, green; [1]): 0 | Plant response rating, Foxtail, Green (foxtail, green; [2]): 0 | Plant response rating, Foxtail, Green (foxtail, green; [3]): 0 | Plant response rating, Foxtail, Green (foxtail, green; [4]): 30 | Plant response rating (Russian thistle; 16 g ai/ha): 5 | Plant response rating (Russian thistle; 31 g ai/ha): 0 | Plant response rating (Russian thistle; 62 g ai/ha): 10 | Plant response rating (Russian thistle; 125 g ai/ha): 5 | Plant response rating, Russian Thistle (Russian thistle; 62 g ai/ha): 0 | Plant response rating, Russian Thistle (Russian thistle; 125 g ai/ha): 0 | Plant response rating, Russian Thistle (Russian thistle; 16 g ai/ha): 0 | Plant response rating, Russian Thistle (Russian thistle; 31 g ai/ha): 0

— patent US10294202B2, “Pyrrolidinones as herbicides” (FMC Corporation, priority 2013, dated 2019)
